The record followed here is patent US10143731B2, “Peptides and combination of peptides for use in immunotherapy against various cancers” (immatics biotechnologies GmbH, priority 2015, dated 2018).

One assay has as its system HLA-A*02. The assay is described as follows: MHC binding assay by UV-ligand exchange and beta2m ELISA, HLA-A*02. The arrangement: species or system human. The settings on record: binding to HLA-A*02 ranged by peptide exchange yield (UV-ligand exchange, β2m ELISA). An excerpt:
(§1) MHC Binding Assays Candidate peptides for T cell based therapies according to the present invention were further tested for their MHC binding capacity (affinity). The individual peptide-MHC complexes were produced by UV-ligand exchange, where a UV-sensitive peptide is cleaved upon UV-irradiation, and exchanged with the peptide of interest as analyzed. Only peptide candidates that can effectively bind and stabilize the peptide-receptive MHC molecules prevent dissociation of the MHC complexes. To determine the yield of the exchange reaction, an ELISA was performed based on the detection of the light chain (β2m) of stabilized MHC complexes. The assay was performed as generally described in Rodenko et al. (Rodenko et al., 2006).
(§2) 96 well MAXISorp plates (NUNC) were coated over night with 2 ug/ml streptavidin in PBS at room temperature, washed 4× and blocked for 1 h at 37° C. in 2% BSA containing blocking buffer. Refolded HLA-A*02:01/MLA-001 monomers served as standards, covering the range of 15-500 ng/ml. Peptide-MHC monomers of the UV-exchange reaction were diluted 100 fold in blocking buffer. Samples were incubated for 1 h at 37° C., washed four times, incubated with 2 ug/ml HRP conjugated anti-β2m for 1 h at 37° C., washed again and detected with TMB solution that is stopped with […]. Absorption was measured at 450 nm. Candidate peptides that show a high exchange yield (preferably higher than 50%, most preferred higher than 75%) are generally preferred for a generation and production of antibodies or fragments thereof, and/or T cell receptors or fragments thereof, as they show sufficient avidity to the MHC molecules and prevent dissociation of the MHC complexes.
On to “153 (FISERVEVV; listed as Homo sapiens) [compound 153]”, for which the Peptide exchange result is listed as “++++ (> = 75% = ++++)”.

Turning to “3 (KLEENGDLYL; listed as Homo sapiens) [compound 3]”, the Peptide exchange entry was “++++ (> = 75% = ++++)”. Same read-out and setting: to “133 (ALLPRLHQL; listed as Homo sapiens) [compound 133]” belongs “++++ (> = 75% = ++++)”; to “4 (KLMPGTYTL; listed as Homo sapiens) [compound 4]”, “++++ (> = 75% = ++++)”. The same measure, in the same setting: next, “125 (SLADYEHFV; listed as Homo sapiens) [compound 125]”: “++++ (> = 75% = ++++)”; “1 (LLYPEPWSV; listed as Homo sapiens) [compound 1]”: “++++ (> = 75% = ++++)”; “126 (QMFQYFITV; listed as Homo sapiens) [compound 126]”: “++++ (> = 75% = ++++)”. On the same count and under the same terms, to “258 (LLSERFINV; listed as Homo sapiens) [compound 258]” belongs “++++ (> = 75% = ++++)”; to “16 (YTLDIPVLFGV; listed as Homo sapiens) [compound 16]”, “++++ (> = 75% = ++++)”; to “129 (RLQDILWFL; listed as Homo sapiens) [compound 129]”, “++++ (> = 75% = ++++)”.

Turning to “92 (GLLFSLRSV; listed as Homo sapiens) [compound 92]”, the Peptide exchange result is reported as “++++ (> = 75% = ++++)”. The same measure, in the same setting: next, “12 (GLLPLLHRA; listed as Homo sapiens) [compound 12]”: “++++ (> = 75% = ++++)”; “34 (FLLATEVVTV; listed as Homo sapiens) [compound 34]”: “++++ (> = 75% = ++++)”; “245 (SLLDLPLSL; listed as Homo sapiens) [compound 245]”: “++++ (> = 75% = ++++)”. On the same count and under the same terms, to “95 (GLLGSLFFL; listed as Homo sapiens) [compound 95]” belongs “++++ (> = 75% = ++++)”; to “248 (YLDRFLAGV; listed as Homo sapiens) [compound 248]”, “++++ (> = 75% = ++++)”.

Turning to “51 (LLFSRLCGA; listed as Homo sapiens) [compound 51]”, the Peptide exchange result is given as “++++ (> = 75% = ++++)”. On the same count and under the same terms, to “14 (ILAKDLFEI; listed as Homo sapiens) [compound 14]” belongs “++++ (> = 75% = ++++)”; to “229 (AILAHLNTV; listed as Homo sapiens) [compound 229]”, “++++ (> = 75% = ++++)”; to “147 (YLMDDTVEI; listed as Homo sapiens) [compound 147]”, “++++ (> = 75% = ++++)”. Same read-out and setting: to “257 (GLYTDPCGV; listed as Homo sapiens) [compound 257]” belongs “++++ (> = 75% = ++++)”.

As for “84 (ALCPRIHEV; listed as Homo sapiens) [compound 84]”, the Peptide exchange entry is “++++ (> = 75% = ++++)”. As for “112 (SLGKFTFDV; listed as Homo sapiens) [compound 112]”, the Peptide exchange result is listed as “++++ (> = 75% = ++++)”.

A further assay relates to HLA-A*24. The assay is described as follows: MHC binding assay by UV-ligand exchange and beta2m ELISA, HLA-A*24. More on the design: species or system human. The settings on record: binding to HLA-A*24 ranged by peptide exchange yield (UV-ligand exchange, β2m ELISA).
Excerpt: as §1, §2
In general terms: In an ELISA, binding on a coated surface is turned into a signal by an enzyme label.
Consider “158 (HYSQELSLLYL; listed as Homo sapiens) [compound 158]”, for which the Peptide exchange result is given as “++++ (> = 75% = ++++)”. As to “163 (DYLKGLASF; listed as Homo sapiens) [compound 163]”, the Peptide exchange result was “++++ (> = 75% = ++++)”. With “167 (NYINRILKL; listed as Homo sapiens) [compound 167]”, the Peptide exchange result is “++++ (> = 75% = ++++)”.

In the case of “204 (TYELRYFQI; listed as Homo sapiens) [compound 204]”, the Peptide exchange result is “++++ (> = 75% = ++++)”. Still for that read-out and setting: to “165 (DYTTWTALL; listed as Homo sapiens) [compound 165]” belongs “++++ (> = 75% = ++++)”; to “159 (LYNKGFIYL; listed as Homo sapiens) [compound 159]”, “++++ (> = 75% = ++++)”.

The test system of another assay is CD8+ T cells. The assay can be described thus: In vitro T-cell priming assay (aAPCs loaded with peptide/MHC and anti-CD28, multimer staining readout). The format is cell-based, human. The settings on record: CD8+ T cells of healthy donors, three stimulation cycles with peptide/MHC and anti-CD28 coated beads. The protocol:
In an aspect, the peptides are pre-screened for immunogenicity before being included in the warehouse. By way of example, and not limitation, the immunogenicity of the peptides included in the warehouse is determined by a method comprising in vitro T-cell priming through repeated stimulations of CD8+ T cells from healthy donors with artificial antigen presenting cells loaded with peptide/MHC complexes and anti-CD28 antibody.
In order to obtain information regarding the immunogenicity of the TUMAPs of the present invention, the inventors performed investigations using an in vitro T-cell priming assay based on repeated stimulations of CD8+ T cells with artificial antigen presenting cells (aAPCs) loaded with peptide/MHC complexes and anti-CD28 antibody.
In order to perform in vitro stimulations by artificial antigen presenting cells loaded with peptide-MHC complex (pMHC) and anti-CD28 antibody, the inventors first isolated CD8+ T cells from fresh HLA-A*02 leukapheresis products via positive selection using CD8 microbeads (Miltenyi Biotec, Bergisch-Gladbach, Germany) of healthy donors obtained from the University clinics Mannheim, Germany, after informed consent.
PBMCs and isolated CD8+ lymphocytes were incubated in T-cell medium (TCM) until use consisting of RPMI-Glutamax (Invitrogen, Karlsruhe, Germany) supplemented with 10% heat inactivated human AB serum (PAN-Biotech, Aidenbach, Germany), 100 U/ml Penicillin/100 μg/ml Streptomycin (Cambrex, Cologne, Germany), 1 mM sodium pyruvate (CC Pro, Oberdorla, Germany), 20 μg/ml Gentamycin (Cambrex). 2.5 ng/ml IL7 (PromoCell, Heidelberg, Germany) and 10 U/ml IL-2 (Novartis Pharma, Nürnberg, Germany) were also added to the TCM at this step.
Generation of pMHC/anti-CD28 coated beads, T-cell stimulations and readout was performed in a highly defined in vitro system using four different pMHC molecules per stimulation condition and 8 different pMHC molecules per readout condition.
The purified co-stimulatory mouse IgG2a anti human CD28 Ab 9.3 (Jung et al., 1987) was chemically biotinylated using Sulfo-N-hydroxysuccinimidobiotin as recommended by the manufacturer (Perbio, Bonn, Germany). Beads used were 5.6 μm diameter streptavidin coated polystyrene particles (Bangs Laboratories, Illinois, USA).
pMHC used for positive and negative control stimulations were A*0201/MLA-001 (peptide […] (SEQ ID NO. 303) from modified Melan-A/MART-1) and A*0201/DDX5-001 ([…] from DDX5, SEQ ID NO. 304), respectively.
800.000 beads/200 μl were coated in 96-well plates in the presence of 4×12.5 ng different biotin-pMHC, washed and 600 ng biotin anti-CD28 were added subsequently in a volume of 200 μl. Stimulations were initiated in 96-well plates by co-incubating 1×10^6 CD8+ T cells with 2×10^5 washed coated beads in 200 μl TCM supplemented with 5 ng/ml IL-12 (PromoCell) for 3 days at 37° C. Half of the medium was then exchanged by fresh TCM supplemented with 80 U/ml IL-2 and incubating was continued for 4 days at 37° C. This stimulation cycle was performed for a total of three times. For the pMHC multimer readout using 8 different pMHC molecules per condition, a two-dimensional combinatorial coding approach was used as previously described (Andersen et al., 2012) with minor modifications encompassing coupling to 5 different fluorochromes. Finally, multimeric analyses were performed by staining the cells with Live/dead near IR dye (Invitrogen, Karlsruhe, Germany), CD8-FITC antibody clone SK1 (BD, Heidelberg, Germany) and fluorescent pMHC multimers. For analysis, a BD LSRII SORP cytometer equipped with appropriate lasers and filters was used. Peptide specific cells were calculated as percentage of total CD8+ cells. Evaluation of multimeric analysis was done using the FlowJo software (Tree Star, Oregon, USA). In vitro priming of specific multimer+CD8+ lymphocytes was detected by comparing to negative control stimulations.
Turning to “298 (RYLEGTSCI; listed as Homo sapiens) [compound 298]”, the “Wells (in vitro immunogenicity of HLA class I peptides)” value is listed as “+ (<20% = +)”. On the same count and under the same terms, next, “300 (AYVLRLETL; listed as Homo sapiens) [compound 300]”: “+ (<20% = +)”; “293 (FLVDGSWSI; listed as Homo sapiens) [compound 293]”: “+ (<20% = +)”.

Staying with this assay, now noted: in vitro immunogenicity of HLA class I peptides.
For the substance “4 (KLMPGTYTL; listed as Homo sapiens) [compound 4]”, the “Wells positive [%]” value is “+ (<20% = +)”.

For “158 (HYSQELSLLYL; listed as Homo sapiens) [compound 158]”, the “Wells positive [%]” value was “+ (<20% = +)”.

For the substance “163 (DYLKGLASF; listed as Homo sapiens) [compound 163]”, the “Wells positive [%]” value is “+ (<20% = +)”. On the same count and under the same terms, next, “167 (NYINRILKL; listed as Homo sapiens) [compound 167]”: “+ (<20% = +)”; “12 (GLLPLLHRA; listed as Homo sapiens) [compound 12]”: “++++ (> = 70% = ++++)”; “204 (TYELRYFQI; listed as Homo sapiens) [compound 204]”: “+ (<20% = +)”. Consider “218 (YYKSTSSAF; listed as Homo sapiens) [compound 218]”, for which the “Wells positive [%]” value is “+ (<20% = +)”. Still for that read-out and setting: to “23 (SLFSDEFKV; listed as Homo sapiens) [compound 23]” belongs “++++ (> = 70% = ++++)”; to “26 (ALQEELTEL; listed as Homo sapiens) [compound 26]”, “+ (<20% = +)”; to “29 (YLLDPSITL; listed as Homo sapiens) [compound 29]”, “+ (<20% = +)”. “165 (DYTTWTALL; listed as Homo sapiens) [compound 165]”: the “Wells positive [%]” value is recorded as “+ (<20% = +)”. Same read-out and setting: next, “5 (GIVAHIQEV; listed as Homo sapiens) [compound 5]”: “+ (<20% = +)”.

“159 (LYNKGFIYL; listed as Homo sapiens) [compound 159]”: the “Wells positive [%]” value is “++++ (> = 70% = ++++)”. As for “18 (ILLDLTDNRL; listed as Homo sapiens) [compound 18]”, the “Wells positive [%]” value is “+ (<20% = +)”. For the substance “196 (LYIDRPLPYL; listed as Homo sapiens) [compound 196]”, the “Wells positive [%]” value was “++++ (> = 70% = ++++)”. On to “268 (QYLGQIQHI; listed as Homo sapiens) [compound 268]”, for which the “Wells positive [%]” value was “+ (<20% = +)”.

As for “141 (FLDKVLVAA; listed as Homo sapiens) [compound 141]”, the “Wells positive [%]” value is “+ (<20% = +)”. Consider “197 (EYSLFPGQVVI; listed as Homo sapiens) [compound 197]”, for which the “Wells positive [%]” value is recorded as “+ (<20% = +)”.
